{
  "source": "patent US7749528B2",
  "about": "“Implantable and sealable medical device for unidirectional delivery of therapeutic agents to tissues” (priority 2001, dated 2010)",
  "key": {"[1]": {"details": "administered locally; cited from earlier work"}, "[2]": {"details": "cited from earlier work"}, "[3]": {"test": "Phase I study of the toxicity of local carboplatin", "type": "in vivo", "details": "following 6 local injections of carboplatin", "procedure": "Protection Against Local Orbital or Periocular Toxicity: The periocular delivery of therapeutic agents is employed when increased amounts of the agent are needed inside the eye. In the case of advanced intraocular retinoblastoma, tumor cells in the vitreous gel are not exposed to sufficient amounts of the chemotherapeutic agents. For this reason, local periocular carboplatin is added to the regimen of systemic chemotherapy for advanced disease. […] Mulvihill et al. reported the complications associated with periocular injections of the chemotherapeutic agent carboplatin in infants with retinoblastoma. This emphasizes the need of a sealed system for unidirectional delivery of toxic agents to the eye."}, "[4]": {"details": "cited from earlier work", "remark": "listed apart in the source"}},
  "data": [
    {"smiles": "COc1cc([C@@H]2c3cc4c(cc3[C@@H](O[C@@H]3O[C@@H]5CO[C@@H](C)O[C@H]5[C@H](O)[C@H]3O)[C@H]3COC(=O)[C@H]23)OCO4)cc(OC)c1O", "note": "[Etoposide]", "values": [
      {"measurement": "local toxicity", "setting": "[1]", "result": "extremely toxic when administered locally"}
    ]},
    {"smiles": "CO[C@@H]1[C@H](N(C)C(=O)c2ccccc2)C[C@H]2O[C@]1(C)n1c3ccccc3c3c4c(c5c6ccccc6n2c5c31)C(=O)NC4", "note": "[PKC412]", "values": [
      {"measurement": "side effects when administered orally", "setting": "[2]; administered orally", "result": "nausea and diarrhea"},
      {"measurement": "toxicity by the periocular route", "setting": "[2]; periocular route, simple injections", "result": "ocular irritation and toxicity was observed"}
    ]},
    {"smiles": "N.N.O=C([O-])C1(C(=O)[O-])CCC1.[Pt+2]", "note": "[carboplatin]", "values": [
      {"measurement": "long-term toxic effects", "setting": "[3]", "result": "atrophy of the orbital fat and connective tissue"},
      {"measurement": "local tissue tolerance", "setting": "[4]; bolus injected into the periocular space", "result": "well tolerated by the local tissue"},
      {"measurement": "complications after periocular injection", "setting": "[4]; periocular injections, after a certain period following the injection", "result": "ocular motility problems, including restriction of the eye movements"}
    ]}
  ]
}
